What was measured:
[1] = test system: NF-κB pathway in THP-1 dual cells; assay: THP-1 Dual Reporter Assay, NF-κB pathway (SEAP reporter); type: cell-based; conditions: Homo sapiens, THP1-Dual, 18 h of stimulation, absorbance at 630 nm, read-out: THP1 Dual EC50 (μM) NFkB
Method: (§1) THP-1 Dual Reporter Assay
(§2) Compounds of the present invention were tested for their activity using THP-1 dual cells (Invivogen, cat no. thpd-nfis) allowing for simultaneous study of NF-κB pathway and the interferon regulatory factor (IRF) pathway. THP-1 dual cells contain luciferase reporter gene under the control of an ISG54 (interferon-stimulated gene) minimal promoter in conjunction with five interferon-stimulated response elements and a secreted embryonic alkaline phosphatase reporter gene under the control an IFN (interferon)-β minimal promoter fused to five copies of the NF-κB consensus transcriptional response element with three copies of the c-Rel binding site. Following 18 h of stimulation with STING agonist, medium was collected and transferred onto fresh cell culture plate. To verify activity of the IRF pathway, luminescence activity was measured with standard laboratory plate reader immediately after addition 10 μl of the medium to 50 μl of luminescence reagent (Invivogen, cat. No. rep-qlc2). To verify activity of NF-κB pathway, 20 μl of the medium was mixed with 80 μl of a detection medium (Invivogen, cat. No. rep-qb2) and incubated for 2 hours at 37° C. in a humidified atmosphere containing 5% CO2. Next, absorbance at 630 nm was recorded using standard laboratory plate reader.

human STING = human STING (Homo sapiens, UniProt Q86WV6); assay: Fluorescence Thermal Shift assay; type: binding; conditions: 50 μM compound; STING 0.1 mg/ml; 20 minutes preincubation; read-out: [hSTING] FTS, ΔTm [° C.] for 50 μM
Chain of human STING (Q86WV6 whole entry H232R): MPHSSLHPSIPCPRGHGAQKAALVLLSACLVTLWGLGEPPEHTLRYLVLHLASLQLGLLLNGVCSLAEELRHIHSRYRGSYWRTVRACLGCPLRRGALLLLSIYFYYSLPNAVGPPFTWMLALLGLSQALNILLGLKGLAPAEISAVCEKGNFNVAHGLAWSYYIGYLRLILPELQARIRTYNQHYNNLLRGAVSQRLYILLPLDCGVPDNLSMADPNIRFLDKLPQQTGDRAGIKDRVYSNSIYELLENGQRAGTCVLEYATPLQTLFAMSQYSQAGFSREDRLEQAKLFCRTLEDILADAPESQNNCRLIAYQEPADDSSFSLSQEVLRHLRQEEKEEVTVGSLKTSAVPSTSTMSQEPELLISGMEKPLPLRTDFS
Method: Fluorescence Thermal Shift Assay Compounds of the present invention were tested for binding to human STING in Fluorescence Thermal Shift assay. STING was preincubated with the compounds for 20 minutes in 50 mM Hepes, 150 mM NaCl, pH 7.5 in 16 μl volume, following by adding 4 μl of SyproOrange dye dilution (ThermoFisher, cat no. S-6651). Final STING concentration was 0.1 mg/ml. Thermal unfolding was performed in Real-Time PCR QuantStudio 6 Flex System (Applied Biosystems), from 25 to 99° C., with continuous ramp mode and ramp rate 0.033° C./s. The data were analyzed using Protein Thermal Shift Software (ThermoFisher). […] For example, ΔTm [° C.] of FTS assay for following examples are: […]

[2] = test system: interferon regulatory factor (IRF) pathway in THP-1 dual cells; assay: THP-1 Dual Reporter Assay, IRF pathway (luciferase reporter); type: cell-based; conditions: Homo sapiens, THP1-Dual, 18 h of stimulation, luminescence
Method: as §1, §2

Compound	EC50 [1]	ΔTm at 50 µM (human STING)	EC50 [2]
O=c1c(CN(CCCCn2ccnc2)Cc2ccncc2)coc2ccccc12 [Example 1, 3-({[4-(1H-imidazol-1-yl)butyl](pyridin-4-ylmethyl)amino}methyl)-4H-chromen-4-one]	≥ 20 µM	< 2.5 °C	10 to 20 µM
O=c1c(CN(CCCn2cccc2)Cc2ccncc2)coc2ccccc12 [Example 2, 3-({[(pyridin-4-yl)methyl][3-(1H-pyrrol-1-yl)propyl]amino}methyl)-4H-chromen-4-one]	≥ 20 µM	< 2.5 °C	10 to 20 µM
O=C1CCCN1CCCN(Cc1ccncc1)Cc1coc2ccccc2c1=O [Example 8, 1-(3-{[(4-oxo-4H-chromen-3-yl)methyl](pyridin-4-ylmethyl)amino}propyl)pyrrolidin-2-one]	≥ 20 µM	< 2.5 °C	≥ 20 µM
O=c1c(CN(CCCn2ccnc2)Cc2ccncc2)coc2cc(F)ccc12 [Example 11, 7-fluoro-3-({[3-(1H-imidazol-1-yl)propyl](pyridin-4-ylmethyl)amino}methyl)-4H-chromen-4-one]	≥ 20 µM	< 2.5 °C	10 to 20 µM
CN1CCN(c2ccc3c(=O)c(CN(CCCn4ccnc4)Cc4ccncc4)coc3c2)CC1 [Example 12, 3-({[3-(1H-imidazol-1-yl)propyl](pyridin-4-ylmethyl)amino}methyl)-7-(4-methylpiper-azin-1-yl)-4H-chromen-4-one]	10 to 20 µM	> 2.5 °C	≤ 10 µM
O=c1c(CN(CCCn2ccnc2)Cc2ccncc2)coc2cc(OCc3ccccc3)ccc12 [Example 13, 7-(benzyloxy)-3-({[3-(1H-imidazol-1-yl)propyl](pyridin-4-ylmethyl)amino}methyl)-4H-chromen-4-one]	≤ 10 µM	> 2.5 °C	≤ 10 µM
Cc1ccc2c(=O)c(CN(CCCn3cccc3)Cc3ccncc3)coc2c1C [Example 15, 7,8-dimethyl-3-{[(pyridin-4-ylmethyl)[3-(1H-pyrrol-1-yl)propyl]amino]methyl}-4H-chromen-4-one]	≥ 20 µM	< 2.5 °C	≥ 20 µM
COc1cc(CN(CCCn2ccnc2)Cc2coc3ccccc3c2=O)ccn1 [Example 18, 3-({[3-(1H-imidazol-1-yl)propyl][(2-methoxypyridin-4-yl)methyl]amino}methyl)-4H-chromen-4-one]	≥ 20 µM	< 2.5 °C	≥ 20 µM
O=c1c(CN(CCCn2ccnc2)Cc2ccncc2)coc2c3c(ccc12)CCCC3 [Example 20, 3-({[3-(1H-imidazol-1-yl)propyl](pyridin-4-ylmethyl)amino}methyl)-4H,7H,8H,9H,10-cyclohexa[h]chromen-4-one]	≤ 10 µM	< 2.5 °C	≤ 10 µM
O=c1c(CN(CCCn2ccnn2)Cc2ccncc2)coc2cc(Br)ccc12 [Example 22, 7-bromo-3-{[(pyridin-4-ylmethyl)[3-(1H1,2,3-triazol-1-yl)propyl]amino]methyl}-4H-chromen-4-one]	≥ 20 µM	< 2.5 °C	10 to 20 µM
O=c1c(CN(CCCn2ccnc2)Cc2ccncc2)cnc2ccccn12 [Example 35, 3-({[3-(1H-imidazol-1-yl)propyl][(pyridin-4-yl)methyl]amino}methyl)-4H-pyrido[1,2-a]pyrimidin-4-one]	≥ 20 µM		≥ 20 µM
COc1cc(CN(CCCc2cncc3[nH]ncc23)Cc2c(C)oc3cc(Br)c(F)cc3c2=O)ccn1 [Example 92, 7-bromo-6-fluoro-3-({[(2-methoxypyridin-4-yl)methyl](3-{1H-pyrazolo[3,4-c]pyridin-4-yl}propyl)amino}methyl)-2-methyl-4H-chromen-4-one]	≥ 20 µM		≥ 20 µM

Continued, values first:

EC50 [1]	ΔTm at 50 µM (human STING)	EC50 [2]	Compound
≥ 20 µM	< 2.5 °C	≥ 20 µM	O=c1c(CN(CCCn2cccn2)Cc2ccncc2)coc2ccccc12 [Example 3, 3-({[3-(1H-pyrazol-1-yl)propyl](pyridin-4-ylmethyl)amino}methyl)-4H-chromen-4-one]
≥ 20 µM	< 2.5 °C	≥ 20 µM	O=c1c(CN(CCCn2ccnn2)Cc2ccncc2)coc2ccccc12 [Example 4, 3-{[(pyridin-4-ylmethyl)[3-(1H-1,2,3-triazol-1-yl)propyl]amino]methyl}-4H-chromen-4-one]
≤ 10 µM	> 2.5 °C	≤ 10 µM	Cc1ccc2c(=O)c(CN(CCCn3ccnc3)Cc3ccncc3)coc2c1C [Example 5, 3-({[3-(1H-imidazol-1-yl)propyl](pyridin-4-ylmethyl)amino}methyl)-7,8-dimethyl-4H-chromen-4-one]
≥ 20 µM	< 2.5 °C	≥ 20 µM	O=c1c(CN(CCCc2ccccn2)Cc2ccncc2)coc2ccccc12 [Example 6, 3-({[3-(pyridin-2-yl)propyl][(pyridin-4-yl)methyl]amino}methyl)-4H-chromen-4-one]
≤ 10 µM	> 2.5 °C	≤ 10 µM	O=c1c(CN(CCCn2ccnc2)Cc2ccncc2)coc2c1ccc1ccccc12 [Example 7, 3-({[3-(1H-imidazol-1-yl)propyl](pyridin-4-ylmethyl)amino}methyl)-4H benzo[h]chromen-4-one]
≤ 10 µM	> 2.5 °C	≤ 10 µM	COc1ccc2c(=O)c(CN(CCCn3ccnc3)Cc3ccncc3)coc2c1 [Example 9, 3-({[3-(1H-imidazol-1-yl)propyl](pyridin-4-ylmethyl)amino}methyl)-7-methoxy-4H-chromen-4-one]
10 to 20 µM	> 2.5 °C	≤ 10 µM	O=c1c(CN(CCCn2ccnc2)Cc2ccncc2)coc2cc(Br)ccc12 [Example 10, 7-bromo-3-({[3-(1H-imidazol-1-yl)propyl](pyridin-4 ylmethyl)amino}methyl)-4H-chromen-4-one]
10 to 20 µM	> 2.5 °C	10 to 20 µM	Cc1ccc2c(=O)c(CN(CCCn3ccnn3)Cc3ccncc3)coc2c1C [Example 14, 7,8-dimethyl-3-{[(pyridin-4-ylmethyl)[3-(1H-1,2,3-triazol-1-yl)propyl]amino]methyl}-4H-chromen-4-one]
≥ 20 µM	> 2.5 °C	10 to 20 µM	O=c1c(CN(CCCn2ccnc2)Cc2ccncc2)coc2cc(O)ccc12 [Example 16, 7-hydroxy-3-({[3-(1H-imidazol-1-yl)propyl](pyridin-4-ylmethyl)amino}methyl)-4H-chromen-4-one]
10 to 20 µM	> 2.5 °C	≤ 10 µM	O=c1c(CN(CCCn2cnc3ccccc32)Cc2ccncc2)coc2ccccc12 [Example 17, 3-({[3-(1H-1,3-benzodiazol-1-yl)propyl](pyridin-4-ylmethyl)amino}methyl)-4H-chromen-4-one]
10 to 20 µM	> 2.5 °C	≤ 10 µM	O=c1c(CN(CCCc2cccnc2)Cc2ccncc2)coc2ccccc12 [Example 19, 3-({[3-(pyridin-3-yl)propyl][(pyridin-4-yl)methyl]amino}methyl)-4H-chromen-4-one]
10 to 20 µM	> 2.5 °C	≤ 10 µM	O=c1c(CN(CCCc2ccncc2)Cc2ccncc2)coc2ccccc12 [Example 21, 3-({[(pyridin-4-yl)methyl][3-(pyridin-4-yl)propyl]amino}methyl)-4H-chromen-4-one]
≥ 20 µM	> 2.5 °C	≥ 20 µM	O=c1c(CN(CCCn2ccnc2)Cc2ccncc2)coc2cc(-c3ccc(F)cc3)ccc12 [Example 23, 7-(4-fluorophenyl)-3-({[3-(1H-imidazol-1-yl)propyl](pyridin-4-ylmethyl)amino}methyl)-4H-chromen-4-one]
≥ 20 µM		≥ 20 µM	N#Cc1ccc2c(=O)c(CN(CCCn3ccnc3)Cc3ccncc3)coc2c1 [Example 24, 3-({[3-(1H-imidazol-1-yl)propyl][(pyridin-4-yl)methyl]amino}methyl)-4-oxo-4H-chromene-7-carbonitrile]
≥ 20 µM		≥ 20 µM	COc1cc(CN(CCCn2cnc3ccccc32)Cc2cnc3ccccn3c2=O)ccn1 [Example 86, 3-({[3-(1H-1,3-benzodiazol-1-yl)propyl][(2-methoxypyridin-4-yl)methyl]amino}methyl)-4H-pyrido[1,2-a]pyrimidin-4-one]
≥ 20 µM		≥ 20 µM	COc1cc(CN(CCCn2cnc3ccccc32)Cc2c(C)oc3c(ccc4ccccc43)c2=O)ccn1 [Example 87, 3-({[3-(1H-1,3-benzodiazol-1-yl)propyl][(2-methoxypyridin-4-yl)methyl]amino}methyl)-2-methyl-4H-benzo[h]chromen-4-one]
